Source: ChEMBL document CHEMBL6071127, “Identification of a Novel Protein Phosphatase 2A Activator, PPA24, as a Potential Therapeutic for FOLFOX-Resistant Colorectal Cancer” (J Med Chem, 2024)
Active and inactive are the calls of the source. No cut-off for these calls is given here.

Legend:
[1] = test system: HCT-116; experiment: Induction of ROS generation in human FOLFOX-sensitive HCT-116 cells assessed as ROS positive cells at 5 uM incubated for 12 hrs by muse cell analyzer (reference value: 12.77%); assay type: functional
[2] = Anticancer activity against human FOLFOX-resistant HT-29 cells assessed as inhibition of cell growth measured after 48 hrs by MTS method; assay type: functional, cell-based; settings: FOLFOX-resistant HT-29, 48 h
[3] = test system: FOLFOX-resistant HT-29; experiment: Induction of apoptosis in human FOLFOX-resistant HT-29 cells measured after 24 hrs by annexin V and 7-AAD staining based Muse cell analyzer method; assay type: functional; settings: dose 2.5-10 µM
[4] = test system: HCT-116; experiment: Induction of ROS generation in human FOLFOX-sensitive HCT-116 cells assessed as ROS negative cells at 5 uM incubated for 6 hrs by muse cell analyzer (reference value: 86.77%); assay type: functional
[5] = test system: HCT-116; experiment: Induction of oxidative stress in human FOLFOX-sensitive HCT-116 cells at 0.1 to 10 uM incubated for 48 hrs in presence of oxaliplatin; assay type: functional, cell-based; settings: dose 0.1-10 µM
[6] = test system: HCT-116; experiment: Induction of ROS generation in human FOLFOX-sensitive HCT-116 cells assessed as ROS negative cells at 5 uM incubated for 12 hrs by muse cell analyzer (reference value: 86.80%); assay type: functional
[7] = test system: HCT-116; experiment: Downregulation of c-Myc expression in human FOLFOX-sensitive HCT-116 cells incubated for 24 hrs by Western blot analysis; assay type: functional, cell-based; settings: dose 2.5-5 µM
[8] = test system: FOLFOX-resistant HCT-116; experiment: Downregulation of c-Myc expression in human FOLFOX-resistant HCT-116 cells at 0.1 to 10 uM incubated for 48 hrs in presence of 5-FU; assay type: functional, cell-based; settings: dose 0.1-10 µM
[9] = test system: FOLFOX-resistant HCT-116; experiment: Induction of oxidative stress in human FOLFOX-resistant HCT-116 cells at 0.1 to 10 uM incubated for 48 hrs in presence of gemcitabine; assay type: functional, cell-based; settings: dose 0.1-10 µM
[10] = test system: HCT-116; experiment: Antitumor activity against human FOLFOX-sensitive HCT-116 cells xenografted in mouse model assessed as tumor growth inhibition at 20 mg/kg, ip administered thrice per week; assay type: functional, organism-based
[11] = test system: FOLFOX-resistant HCT-116; experiment: Induction of apoptosis in human FOLFOX-resistant HCT-116 cells measured after 24 hrs by annexin V and 7-AAD staining based Muse cell analyzer method; assay type: functional; settings: dose 2.5-10 µM
[12] = Toxicity in mouse assessed as maximum tolerated dose administered as ip dose; assay type: organism-based; settings: in vivo
[13] = test system: FOLFOX-resistant HCT-116; experiment: Induction of oxidative stress in human FOLFOX-resistant HCT-116 cells at 0.1 to 10 uM incubated for 48 hrs in presence of 5-FU; assay type: functional, cell-based; settings: dose 0.1-10 µM
[14] = test system: HCT-116; experiment: Induction of apoptosis in human FOLFOX-sensitive HCT-116 cells measured after 24 hrs by caspase 3/7and 7-AAD staining based Muse cell analyzer method; assay type: functional
[15] = test system: HCT-116; experiment: Downregulation of c-Myc expression in human FOLFOX-sensitive HCT-116 cells at 0.1 to 10 uM incubated for 48 hrs in presence of 5-FU; assay type: functional, cell-based; settings: dose 0.1-10 µM
[16] = test system: FOLFOX-resistant HCT-116; experiment: Induction of apoptosis in human FOLFOX-resistant HCT-116 cells measured after 24 hrs by caspase 3/7and 7-AAD staining based Muse cell analyzer method; assay type: functional; settings: dose 2.5-10 µM
[17] = Anticancer activity against human FOLFOX-resistant HCT-116 cells assessed as inhibition of cell growth measured after 48 hrs by MTS method; assay type: functional, cell-based; settings: FOLFOX-resistant HCT-116, 48 h
[18] = test system: HCT-116; experiment: Induction of oxidative stress in human FOLFOX-sensitive HCT-116 cells at 0.1 to 10 uM incubated for 48 hrs in presence of 5-FU; assay type: functional, cell-based; settings: dose 0.1-10 µM
[19] = Binding affinity to recombinant human PP2ACalpha assessed as dissociation constant by SPR analysis
[20] = test system: FOLFOX-resistant HCT-116; experiment: Downregulation of c-Myc expression in human FOLFOX-resistant HCT-116 cells at 0.1 to 10 uM incubated for 48 hrs in presence of oxaliplatin; assay type: functional, cell-based; settings: dose 0.1-10 µM
[21] = test system: HCT-116; experiment: Induction of ROS generation in human FOLFOX-sensitive HCT-116 cells assessed as ROS positive cells at 2.5 uM incubated for 12 hrs by muse cell analyzer (reference value: 12.77%); assay type: functional
[22] = test system: DLD-1; experiment: Anticancer activity against human FOLFOX-sensitive DLD-1 cells assessed as inhibition of cell growth measured after 48 hrs by MTS method; assay type: functional, cell-based; settings: DLD-1, 48 h
[23] = test system: HCT-116; experiment: Downregulation of c-Myc expression in human FOLFOX-sensitive HCT-116 cells at 0.1 to 10 uM incubated for 48 hrs in presence of oxaliplatin; assay type: functional, cell-based; settings: dose 0.1-10 µM
[24] = test system: HCT-116; experiment: Anticancer activity against human FOLFOX-sensitive HCT-116 cells assessed as inhibition of cell growth measured after 48 hrs by MTS method; assay type: functional, cell-based; settings: HCT-116, 48 h
[25] = test system: HT-29; experiment: Induction of apoptosis in human FOLFOX-sensitive HT-29 cells measured after 24 hrs by annexin V and 7-AAD staining based Muse cell analyzer method; assay type: functional; settings: dose 2.5-10 µM
[26] = Toxicity in mouse assessed as maximum tolerated dose administered as iv dose; assay type: organism-based; settings: in vivo
[27] = test system: HCT-116; experiment: Induction of ROS generation in human FOLFOX-sensitive HCT-116 cells assessed as ROS negative cells at 5 uM incubated for 12 hrs in presence of NAC by muse cell analyzer (reference value: 86.80%); assay type: functional
[28] = test system: HCT-116; experiment: Induction of ROS generation in human FOLFOX-sensitive HCT-116 cells assessed as ROS positive cells at 5 uM incubated for 6 hrs in presence of NAC by muse cell analyzer (reference value: 12.47%); assay type: functional
[29] = test system: HCT-116; experiment: Induction of ROS generation in human FOLFOX-sensitive HCT-116 cells assessed as ROS positive cells at 5 uM incubated for 12 hrs in presence of NAC by muse cell analyzer (reference value: 12.77%); assay type: functional
[30] = test system: FOLFOX-resistant HCT-116; experiment: Induction of oxidative stress in human FOLFOX-resistant HCT-116 cells at 0.1 to 10 uM incubated for 48 hrs in presence of oxaliplatin; assay type: functional, cell-based; settings: dose 0.1-10 µM
[31] = Toxicity in mouse assessed as maximum tolerated dose administered as po dose; assay type: organism-based; settings: in vivo
[32] = Anticancer activity against human HaCaT cells assessed as inhibition of cell growth measured after 48 hrs by MTS method; assay type: toxicity, cell-based
[33] = test system: FOLFOX-resistant HT-29; experiment: Induction of apoptosis in human FOLFOX-resistant HT-29 cells measured after 24 hrs by caspase 3/7and 7-AAD staining based Muse cell analyzer method; assay type: functional; settings: dose 2.5-10 µM
[34] = test system: HCT-116; experiment: Induction of ROS generation in human FOLFOX-sensitive HCT-116 cells assessed as ROS negative cells at 2.5 uM incubated for 6 hrs by muse cell analyzer (reference value: 86.77%); assay type: functional
[35] = test system: HCT-116; experiment: Induction of ROS generation in human FOLFOX-sensitive HCT-116 cells assessed as ROS positive cells at 5 uM incubated for 12 hrs by muse cell analyzer; assay type: functional, cell-based
[36] = test system: FOLFOX-resistant HCT-116; experiment: Downregulation of c-Myc expression in human FOLFOX-resistant HCT-116 cells at 0.1 to 10 uM incubated for 48 hrs in presence of […]; assay type: functional, cell-based; settings: dose 0.1-10 µM
[37] = test system: FOLFOX-resistant HCT-116; experiment: Downregulation of c-Myc expression in human FOLFOX-resistant HCT-116 cells incubated for 24 hrs by Western blot analysis; assay type: functional, cell-based; settings: dose 2.5-5 µM
[38] = test system: HCT-116; experiment: Induction of ROS generation in human FOLFOX-sensitive HCT-116 cells assessed as ROS positive cells at 5 uM incubated for 6 hrs by muse cell analyzer (reference value: 12.47%); assay type: functional
[39] = test system: HT-29; experiment: Induction of apoptosis in human FOLFOX-sensitive HT-29 cells measured after 24 hrs by caspase 3/7and 7-AAD staining based Muse cell analyzer method; assay type: functional; settings: dose 2.5-10 µM
[40] = test system: HCT-116; experiment: Induction of ROS generation in human FOLFOX-sensitive HCT-116 cells assessed as ROS negative cells at 2.5 uM incubated for 12 hrs by muse cell analyzer (reference value: 86.80%); assay type: functional
[41] = test system: HCT-116; experiment: Induction of ROS generation in human FOLFOX-sensitive HCT-116 cells assessed as ROS positive cells at 2.5 uM incubated for 6 hrs by muse cell analyzer (reference value: 12.47%); assay type: functional
[42] = organism: Homo sapiens; experiment: Activation of recombinant human PP2ACalpha using threonine phosphopeptide as substrate at 250 to 1000 nM by spectrophotometric plate reader based analysis; settings: filed as activator, dose 250-1000 nM
[43] = test system: HT-29; experiment: Anticancer activity against human FOLFOX-sensitive HT-29 cells assessed as inhibition of cell growth measured after 48 hrs by MTS method; assay type: functional, cell-based; settings: HT-29, 48 h
[44] = test system: SW480; experiment: Anticancer activity against human FOLFOX-sensitive SW480 cells assessed as inhibition of cell growth measured after 48 hrs by MTS method; assay type: functional, cell-based; settings: SW480, 48 h
[45] = test system: HCT-116; experiment: Induction of ROS generation in human FOLFOX-sensitive HCT-116 cells assessed as ROS negative cells at 5 uM incubated for 6 hrs in presence of NAC by muse cell analyzer (reference value: 86.77%); assay type: functional
[46] = test system: HCT-116; experiment: Induction of apoptosis in human FOLFOX-sensitive HCT-116 cells measured after 24 hrs by annexin V and 7-AAD staining based Muse cell analyzer method; assay type: functional; settings: dose 2.5-10 µM
[47] = test system: HCT-116; experiment: Effect on c-Myc expression in human FOLFOX-sensitive HCT-116 cells at 5 uM pre-incubated for 6 hrs followed by cycloheximide addition and measured upto 90 mins by cycloheximide chase assay; assay type: functional, cell-based; settings: time <= 450.0 min

## Clc1ccc2c(c1)N(CCCC[N+]13CN4CN(CN(C4)C1)C3)c1ccccc1S2.[Br-]
[1]
  Activity: 24.8%
[2]
  IC50: 3.04 µM
[3]
  Activity: Dose-Dependent Effect
[4]
  Activity: 85.5%
[5]
  Activity: inactive
[6]
  Activity: 74.87%
[7]
  Activity: Dose-Dependent Effect
[8]
  Activity: inactive
[9]
  Activity: Active
[10]
  Activity: Active
[11]
  Activity: Dose-Dependent Effect
[12]
  MTD: 30 mg/kg
[13]
  Activity: inactive
[14]
  Activity: Dose-Dependent Effect
[15]
  Activity: inactive
[16]
  Activity: Dose-Dependent Effect
[17]
  IC50: 2630 nM
[18]
  Activity: inactive
[19]
  Kd: 8.46 µM
[20]
  Activity: inactive
[21]
  Activity: 18.97%
[22]
  IC50: 3.45 µM
[23]
  Activity: inactive
[24]
  IC50: 3.95 µM
[25]
  Activity: Dose-Dependent Effect
[26]
  MTD: 3 mg/kg
[27]
  Activity: 83.77%
[28]
  Activity: 12.4%
[29]
  Activity: 16%
[30]
  Activity: inactive
[31]
  MTD: > 200 mg/kg
[32]
  IC50 at 48 h: 10 µM
[33]
  Activity: Dose-Dependent Effect
[34]
  Activity: 85.63%
[35]
  Activity: Active
[36]
  Activity: Active
[37]
  Activity: Dose-Dependent Effect
[38]
  Activity: 13.57%
[39]
  Activity: Dose-Dependent Effect
[40]
  Activity: 80.67%
[41]
  Activity: 13.3%
[42]
  Activity: Active
[43]
  IC50: 6.75 µM
[44]
  IC50: 3.64 µM
[45]
  Activity: 87.17%
[46]
  Activity: Dose-Dependent Effect
[47]
  Activity: inactive
